Publication PMC5218480 (PLoS ONE, 2017)

Tested on: MV-4-11 cells
Assay: Gene expression microarray analysis (Affymetrix PrimeView) and GSEA
Assay type: cell-based, human
Parameters: RFU PODN (11730768_x_at) / Fold change /veh PODN (11730768_x_at) / RFU LINC00158 (11744669_a_at) / Fold change /veh LINC00158 (11744669_a_at) / RFU DUSP10 (11751237_a_at) / Fold change /veh DUSP10 (11751237_a_at) / RFU ID3 (11757404_x_at) / Fold change /veh ID3 (11757404_x_at) / RFU PLEKHG5 (11737974_s_at) / Fold change /veh PLEKHG5 (11737974_s_at) / RFU LRRC4B (11730491_at) / Fold change /veh LRRC4B (11730491_at) / RFU GIMAP4 (11747438_a_at) / Fold change /veh GIMAP4 (11747438_a_at) / RFU KRT8 (11758183_x_at) / Fold change /veh KRT8 (11758183_x_at) / RFU CNN1 (11734310_a_at) / Fold change /veh CNN1 (11734310_a_at) / RFU VPS37D (11726825_at) / Fold change /veh VPS37D (11726825_at) / RFU C10orf10 (11716522_x_at) / Fold change /veh C10orf10 (11716522_x_at) / RFU KIR2DL2 /// KIR2DL4 /// KIR2DL5A /// KIR2DL5B /// KIR2DS1 /// KIR2DS2 /// KIR2DS3 /// KIR2DS4 /// KIR3DL3 /// KIR3DL3 /// KIR3DS1 (11738374_at) / Fold change /veh KIR2DL2 /// KIR2DL4 /// KIR2DL5A /// KIR2DL5B /// KIR2DS1 /// KIR2DS2 /// KIR2DS3 /// KIR2DS4 /// KIR3DL3 /// KIR3DL3 /// KIR3DS1 (11738374_at) / RFU C1QL1 (11718748_at) / Fold change /veh C1QL1 (11718748_at) / RFU TMPRSS4 (11747572_a_at) / Fold change /veh TMPRSS4 (11747572_a_at) / RFU HAMP (11756126_x_at) / Fold change /veh HAMP (11756126_x_at) / RFU RNFT2 (11725882_a_at) / Fold change /veh RNFT2 (11725882_a_at) / RFU NR4A2 (11747474_a_at) / Fold change /veh NR4A2 (11747474_a_at) / RFU ABCC12 (11746883_a_at) / Fold change /veh ABCC12 (11746883_a_at) / RFU TMEM136 (11760407_x_at) / Fold change /veh TMEM136 (11760407_x_at) / RFU CLDN22 /// WWC2 (11732394_at) / Fold change /veh CLDN22 /// WWC2 (11732394_at) / RFU HLA-DPB1 (11760878_x_at) / Fold change /veh HLA-DPB1 (11760878_x_at) / RFU SPINT1 (11716480_a_at) / Fold change /veh SPINT1 (11716480_a_at) / RFU GAP43 (11754022_s_at) / Fold change /veh GAP43 (11754022_s_at) / RFU A4GNT (11735810_at) / Fold change /veh A4GNT (11735810_at) / RFU PRB3 (11715151_x_at) / Fold change /veh PRB3 (11715151_x_at) / RFU TUBB4B (11761932_at) / Fold change /veh TUBB4B (11761932_at) / RFU CAPN14 (11732068_a_at) / Fold change /veh CAPN14 (11732068_a_at) / RFU TMCC2 (11721928_a_at) / Fold change /veh TMCC2 (11721928_a_at) / RFU IRGQ (11745062_a_at) / Fold change /veh IRGQ (11745062_a_at) / RFU FAM174B (11720279_a_at) / Fold change /veh FAM174B (11720279_a_at) / RFU TMPRSS4 (11748680_a_at) / Fold change /veh TMPRSS4 (11748680_a_at) / RFU FAM212B (11763350_a_at) / Fold change /veh FAM212B (11763350_a_at) / RFU PLEKHG5 (11743358_a_at) / Fold change /veh PLEKHG5 (11743358_a_at) / RFU ZSCAN30 (11745921_a_at) / Fold change /veh ZSCAN30 (11745921_a_at) / RFU CMKLR1 (11741424_a_at) / Fold change /veh CMKLR1 (11741424_a_at) / RFU LOC101060620 /// MAPK8IP1 (11723275_at) / Fold change /veh LOC101060620 /// MAPK8IP1 (11723275_at) / RFU SPTSSB (11747773_x_at) / Fold change /veh SPTSSB (11747773_x_at) / RFU PRSS12 (11739890_at) / Fold change /veh PRSS12 (11739890_at) / RFU BIN1 (11741810_x_at) / Fold change /veh BIN1 (11741810_x_at) / RFU WNT11 (11732464_a_at) / Fold change /veh WNT11 (11732464_a_at) / RFU C10orf10 (11716521_a_at) / Fold change /veh C10orf10 (11716521_a_at) / RFU C5orf56 (11738089_at) / Fold change /veh C5orf56 (11738089_at) / RFU CYB561 (11721691_x_at) / Fold change /veh CYB561 (11721691_x_at) / RFU ANKRD19P (11752326_a_at) / Fold change /veh ANKRD19P (11752326_a_at) / RFU OR2T12 /// OR2T33 /// OR2T8 (11738714_s_at) / Fold change /veh OR2T12 /// OR2T33 /// OR2T8 (11738714_s_at) / RFU VCAN (11748164_a_at) / Fold change /veh VCAN (11748164_a_at) / RFU JSRP1 (11732532_at) / Fold change /veh JSRP1 (11732532_at) / RFU KRTAP10-11 (11738290_x_at) / Fold change /veh KRTAP10-11 (11738290_x_at) / RFU MYO3A (11730013_a_at) / Fold change /veh MYO3A (11730013_a_at) / RFU EBF3 (11725865_a_at) / Fold change /veh EBF3 (11725865_a_at) / RFU CAMK2N1 (11719241_x_at) / Fold change /veh CAMK2N1 (11719241_x_at) / RFU C5orf56 (11738088_a_at) / Fold change /veh C5orf56 (11738088_a_at) / RFU OLFML3 (11715873_a_at) / Fold change /veh OLFML3 (11715873_a_at) / RFU LOC100653217 /// NTM (11731650_a_at) / Fold change /veh LOC100653217 /// NTM (11731650_a_at) / RFU MAPK11 (11762145_a_at) / Fold change /veh MAPK11 (11762145_a_at) / RFU FIZ1 (11724087_x_at) / Fold change /veh FIZ1 (11724087_x_at) / RFU OASL (11726364_x_at) / Fold change /veh OASL (11726364_x_at) / RFU SOX15 (11748057_x_at) / Fold change /veh SOX15 (11748057_x_at) / RFU CD79A (11719716_a_at) / Fold change /veh CD79A (11719716_a_at) / RFU HIST1H1D (11736915_at) / Fold change /veh HIST1H1D (11736915_at) / RFU CASKIN2 (11723855_a_at) / Fold change /veh CASKIN2 (11723855_a_at) / RFU LOC730098 (11760151_x_at) / Fold change /veh LOC730098 (11760151_x_at) / RFU OR4N2 (11742367_at) / Fold change /veh OR4N2 (11742367_at) / RFU PRRT2 (11749266_a_at) / Fold change /veh PRRT2 (11749266_a_at) / RFU SNX32 (11753110_a_at) / Fold change /veh SNX32 (11753110_a_at) / RFU CDHR5 (11726645_a_at) / Fold change /veh CDHR5 (11726645_a_at) / RFU RCAN1 (11760418_a_at) / Fold change /veh RCAN1 (11760418_a_at) / RFU FAM167A (11723789_a_at) / Fold change /veh FAM167A (11723789_a_at) / RFU FAM26E (11764081_at) / Fold change /veh FAM26E (11764081_at) / RFU ISYNA1 (11749810_s_at) / Fold change /veh ISYNA1 (11749810_s_at) / RFU ACY1 (11761880_at) / Fold change /veh ACY1 (11761880_at) / RFU 11764098_at / Fold change /veh 11764098_at / RFU SAMD14 (11745864_x_at) / Fold change /veh SAMD14 (11745864_x_at) / RFU NPB (11741838_a_at) / Fold change /veh NPB (11741838_a_at) / RFU TMPRSS6 (11731388_a_at) / Fold change /veh TMPRSS6 (11731388_a_at) / RFU KRTAP10-2 (11738614_at) / Fold change /veh KRTAP10-2 (11738614_at) / RFU ARHGAP8 /// PRR5-ARHGAP8 (11727945_x_at) / Fold change /veh ARHGAP8 /// PRR5-ARHGAP8 (11727945_x_at) / RFU KRTAP5-7 /// NADSYN1 (11734609_at) / Fold change /veh KRTAP5-7 /// NADSYN1 (11734609_at) / RFU RASL12 (11751679_a_at) / Fold change /veh RASL12 (11751679_a_at) / RFU CDKN2B (11736163_a_at) / Fold change /veh CDKN2B (11736163_a_at) / RFU PRF1 (11729649_at) / Fold change /veh PRF1 (11729649_at) / RFU, ZNF638 /// ZNF638-IT1 / Fold change vs veh, ZNF638 /// ZNF638-IT1 / RFU, PANK3 / Fold change vs veh, PANK3 / RFU, SH3YL1 / Fold change vs veh, SH3YL1 / RFU, ZEB2 / Fold change vs veh, ZEB2 / RFU, NRIP1 / Fold change vs veh, NRIP1 / RFU, PTTG1IP / Fold change vs veh, PTTG1IP / RFU, CAPN2 / Fold change vs veh, CAPN2 / RFU, MED14 / Fold change vs veh, MED14 / RFU, SNORA58 / Fold change vs veh, SNORA58 / RFU, C1orf63 / Fold change vs veh, C1orf63 / RFU, LRRFIP1 / Fold change vs veh, LRRFIP1 / RFU, NDUFAF7 / Fold change vs veh, NDUFAF7 / RFU, SLC12A2 / Fold change vs veh, SLC12A2 / RFU, IBTK / Fold change vs veh, IBTK / RFU, ESF1 / Fold change vs veh, ESF1 / Fold change vs veh, TMEM50B / RFU, TAOK1 / Fold change vs veh, TAOK1 / RFU, ACBD3 / Fold change vs veh, ACBD3 / RFU, TMA16 / Fold change vs veh, TMA16 / RFU, RWDD3 / Fold change vs veh, RWDD3 / RFU, BCAT1 / Fold change vs veh, BCAT1 / RFU, EDEM3 / Fold change vs veh, EDEM3 / RFU, TMEM33 / Fold change vs veh, TMEM33 / RFU, WDR75 / Fold change vs veh, WDR75 / RFU, AHCTF1 / Fold change vs veh, AHCTF1 / RFU, TFRC / Fold change vs veh, TFRC / RFU, ZDHHC17 / Fold change vs veh, ZDHHC17 / RFU, NOM1 / Fold change vs veh, NOM1 / RFU, ARL8B / Fold change vs veh, ARL8B / RFU, ZBTB11 / Fold change vs veh, ZBTB11 / RFU, TAMM41 / Fold change vs veh, TAMM41 / RFU, KIAA1704 /// LOC100996395 / Fold change vs veh, KIAA1704 /// LOC100996395 / RFU, ING1 / Fold change vs veh, ING1 / RFU, TRMT61B / Fold change vs veh, TRMT61B / RFU, FUBP3 / Fold change vs veh, FUBP3 / RFU, TP53 / Fold change vs veh, TP53 / RFU, TNKS2 / Fold change vs veh, TNKS2 / RFU, ZFP14 / Fold change vs veh, ZFP14 / RFU, ACTR2 / Fold change vs veh, ACTR2 / RFU, PPP3R1 / Fold change vs veh, PPP3R1 / RFU, PIK3R1 / Fold change vs veh, PIK3R1 / RFU, HNRNPA1 / Fold change vs veh, HNRNPA1 / RFU, RNF170 / Fold change vs veh, RNF170 / RFU, ZNF28 / Fold change vs veh, ZNF28 / RFU, RNGTT / Fold change vs veh, RNGTT / RFU, OGT / Fold change vs veh, OGT / RFU, BRD1 / Fold change vs veh, BRD1 / RFU, MARS / Fold change vs veh, MARS / RFU, ZNF655 / Fold change vs veh, ZNF655 / RFU, FAHD1 / Fold change vs veh, FAHD1 / RFU, BDP1 / Fold change vs veh, BDP1 / RFU, LRRCC1 / Fold change vs veh, LRRCC1 / RFU, ARID1A / Fold change vs veh, ARID1A / RFU, ZNF146 / Fold change vs veh, ZNF146 / RFU, ZNF330 / Fold change vs veh, ZNF330 / RFU, GPN3 / Fold change vs veh, GPN3 / RFU, C9orf123 / Fold change vs veh, C9orf123 / RFU, N4BP2L2 / Fold change vs veh, N4BP2L2 / RFU, ARFIP1 / Fold change vs veh, ARFIP1 / RFU, FAM179B / Fold change vs veh, FAM179B / RFU, BCL10 / Fold change vs veh, BCL10 / RFU, UHRF1BP1L / Fold change vs veh, UHRF1BP1L / RFU, BET1 / Fold change vs veh, BET1 / RFU, CNOT2 / Fold change vs veh, CNOT2 / RFU, ZNF268 / Fold change vs veh, ZNF268 / Fold change vs veh, ZNF507 / RFU, DGCR2 / Fold change vs veh, DGCR2 / RFU, WDSUB1 / Fold change vs veh, WDSUB1 / Fold change vs veh, HSP90B1 /// MIR3652 / RFU, ADSS / Fold change vs veh, ADSS / RFU, GK / Fold change vs veh, GK / RFU, ZNF148 / Fold change vs veh, ZNF148 / RFU, TAF9 / Fold change vs veh, TAF9 / RFU, SLC1A5 / Fold change vs veh, SLC1A5 / RFU, SLMO2 / Fold change vs veh, SLMO2 / RFU, ABCC4 / Fold change vs veh, ABCC4 / RFU, LOC101060439 /// RAP1B / Fold change vs veh, LOC101060439 /// RAP1B / RFU, RFX7 / Fold change vs veh, RFX7 / RFU, GTPBP10 / Fold change vs veh, GTPBP10 / RFU, CNEP1R1 / Fold change vs veh, CNEP1R1 / RFU, BIVM-ERCC5 /// ERCC5 / Fold change vs veh, BIVM-ERCC5 /// ERCC5 / RFU, ILF3 / Fold change vs veh, ILF3 / RFU 11762660_at / Fold change /veh 11762660_at / RFU VCAN (11757783_s_at) / Fold change /veh VCAN (11757783_s_at) / RFU DDX43 (11728927_at) / Fold change /veh DDX43 (11728927_at) / RFU KRT8 (11758188_x_at) / Fold change /veh KRT8 (11758188_x_at) / RFU NKD1 (11759106_at) / Fold change /veh NKD1 (11759106_at) / RFU SRD5A1 (11742802_a_at) / Fold change /veh SRD5A1 (11742802_a_at) / RFU TPSAB1 /// TPSB2 (11721975_s_at) / Fold change /veh TPSAB1 /// TPSB2 (11721975_s_at) / RFU GSTM3 (11746129_a_at) / Fold change /veh GSTM3 (11746129_a_at) / RFU IL23R (11737362_x_at) / Fold change /veh IL23R (11737362_x_at) / RFU TMEM51 (11727254_a_at) / Fold change /veh TMEM51 (11727254_a_at) / RFU PIWIL2 (11732686_x_at) / Fold change /veh PIWIL2 (11732686_x_at) / RFU ORM1 (11744905_x_at) / Fold change /veh ORM1 (11744905_x_at) / RFU CCDC152 (11743942_at) / Fold change /veh CCDC152 (11743942_at) / RFU ECM1 (11717891_a_at) / Fold change /veh ECM1 (11717891_a_at) / RFU IL23R (11748794_a_at) / Fold change /veh IL23R (11748794_a_at) / RFU TNFAIP8L3 (11732012_x_at) / Fold change /veh TNFAIP8L3 (11732012_x_at) / RFU MBOAT4 (11741988_at) / Fold change /veh MBOAT4 (11741988_at) / RFU 11764193_at / Fold change /veh 11764193_at / RFU TMEM53 (11763286_at) / Fold change /veh TMEM53 (11763286_at) / RFU MAGEB2 (11727129_at) / Fold change /veh MAGEB2 (11727129_at) / RFU TMEM200A (11744735_a_at) / Fold change /veh TMEM200A (11744735_a_at) / RFU CCDC152 (11751479_a_at) / Fold change /veh CCDC152 (11751479_a_at) / RFU FAM211A (11726209_a_at) / Fold change /veh FAM211A (11726209_a_at) / RFU RGS16 (11746705_a_at) / Fold change /veh RGS16 (11746705_a_at) / RFU VCAN (11755009_s_at) / Fold change /veh VCAN (11755009_s_at) / RFU RHOB (11743442_s_at) / Fold change /veh RHOB (11743442_s_at) / RFU RGS16 (11720943_a_at) / Fold change /veh RGS16 (11720943_a_at) / RFU RGS16 (11720944_at) / Fold change /veh RGS16 (11720944_at) / RFU, VPS4B / Fold change vs veh, VPS4B / RFU, CREB1 / Fold change vs veh, CREB1 / RFU, DNAJC13 / Fold change vs veh, DNAJC13 / RFU, GNAQ / Fold change vs veh, GNAQ / RFU, CDK5R1 / Fold change vs veh, CDK5R1 / RFU, ZRANB3 / Fold change vs veh, ZRANB3 / RFU, CUL4A / Fold change vs veh, CUL4A / RFU, CCNY / Fold change vs veh, CCNY / RFU, UFL1 / Fold change vs veh, UFL1 / RFU, COG3 / Fold change vs veh, COG3 / RFU, DIAPH2 / Fold change vs veh, DIAPH2 / RFU, SKA2 / Fold change vs veh, SKA2 / RFU, AFF3 / Fold change vs veh, AFF3 / RFU, LMF1 / Fold change vs veh, LMF1 / RFU, IPO11 / Fold change vs veh, IPO11 / RFU, DFFB / Fold change vs veh, DFFB / RFU, FOXP1 / Fold change vs veh, FOXP1 / RFU, CARD8 / Fold change vs veh, CARD8 / RFU, STRN3 / Fold change vs veh, STRN3 / RFU, ADK / Fold change vs veh, ADK / RFU, RASSF2 / Fold change vs veh, RASSF2 / RFU, WIPF1 / Fold change vs veh, WIPF1 / RFU, LARP1B / Fold change vs veh, LARP1B / RFU, RASA1 / Fold change vs veh, RASA1 / RFU, RB1 / Fold change vs veh, RB1 / RFU, PPFIA1 / Fold change vs veh, PPFIA1 / RFU, MAT2A / Fold change vs veh, MAT2A / RFU, CCT5 / Fold change vs veh, CCT5 / RFU, WDR92 / Fold change vs veh, WDR92 / RFU, CUX1 / Fold change vs veh, CUX1 / RFU, TTC7A / Fold change vs veh, TTC7A / RFU, TMEM135 / Fold change vs veh, TMEM135 / RFU, DEPTOR / Fold change vs veh, DEPTOR / RFU, CPM / Fold change vs veh, CPM / RFU, DNAJB6 / Fold change vs veh, DNAJB6 / RFU, CACNA2D3 / Fold change vs veh, CACNA2D3 / RFU, DTX4 / Fold change vs veh, DTX4 / RFU, TFCP2 / Fold change vs veh, TFCP2 / RFU, GMCL1 /// GMCL1P1 / Fold change vs veh, GMCL1 /// GMCL1P1 / RFU, AEBP2 / Fold change vs veh, AEBP2 / RFU, SNHG1 /// SNORD22 /// SNORD25 /// SNORD26 /// SNORD27 /// SNORD28 /// SNORD29 /// SNORD31 / Fold change vs veh, SNHG1 /// SNORD22 /// SNORD25 /// SNORD26 /// SNORD27 /// SNORD28 /// SNORD29 /// SNORD31 / Fold change (Aza/veh), C12orf56 (ProbeSet 11735607_a_at) / Fold change (ACY-1035/veh), C12orf56 (ProbeSet 11735607_a_at) / Fold change (Aza/veh), FGFR1OP (ProbeSet 11751329_s_at) / Fold change (ACY-1035/veh), FGFR1OP (ProbeSet 11751329_s_at) / Fold change (Aza/veh), VPS36 (ProbeSet 11739960_a_at) / Fold change (ACY-1035/veh), VPS36 (ProbeSet 11739960_a_at) / RFU SYPL1 (11715823_x_at) / Fold change /veh SYPL1 (11715823_x_at) / RFU IGFBP7 (11715501_s_at) / Fold change /veh IGFBP7 (11715501_s_at) / RFU REEP3 (11722064_at) / Fold change /veh REEP3 (11722064_at) / RFU IGLL1 (11728026_x_at) / Fold change /veh IGLL1 (11728026_x_at): dose or concentration left out as unconfirmed
Settings: MV-4-11 cells, 48 hours

For `Nc1ccc(-c2cccs2)cc1NC(=O)c1ccc2c(c1)cc(C1CC1)n2CCN1CCOCC1` [ACY-1035], the “Fold change /veh NKD1 (11759106_at)” value was 1.08.
